Experimental data reported in patent publication US4261994A, “1,2,4-Oxadiazole derivatives, their preparation and pharmaceutical use” (Synthelabo, priority 1977, dated 1981).
Read-outs that look alike come from different tables or passages of the source.

Legend:
[1] = tested on: spontaneously hypertonic male rats; test: Anti-hypertensive activity in spontaneously hypertonic male rats (method of Gerold and Tschirky), systolic pressure by pulse at caudal artery; type: in vivo; details: Rattus norvegicus, po; for change in vivo at 5 mg/kg: administered dose 5 mg/kg orally; for change in vivo at 20 mg/kg: administered dose 20 mg/kg orally
Description: The anti-hypertensive activity is evaluated on spontaneously hypertonic male rats in accordance with the method of Gerold and Tschirky (Arzneim. Forsch, 1968, 18, 1,285). The systolic pressure is measured by taking the pulse at the level of the caudal artery. […]

[2] = Toxicity, 50% lethal dose, intraperitoneal administration to CD1 male rats; details: rat, in vivo, ip; intraperitoneally to rats, fasted 18 hours; read-out: 50% lethal dose (LD 50)
Description: The toxicity of the compounds (I) was determined by intraperitoneal administration to CD1 (Charles River) male rats weighing 100 to 120 g, which had fasted for 18 hours.

[3] = 4 hours, read-out: Anti-hypertensive activity %, 4 hours
[4] = 24 hours, read-out: Anti-hypertensive activity %, 24 hours

Compound	change in vivo at 5 mg/kg [1, 3]	change in vivo at 5 mg/kg [1, 4]	LD50 [2]	change in vivo at 20 mg/kg [1, 3]	change in vivo at 20 mg/kg [1, 4]
Nc1noc(Cc2cc(Cl)ccc2Cl)n1 [Compound 19]	-18%	-3%	≥ 500 mg/kg	–	–
OCCN(C=Nc1noc(Cc2c(Cl)cccc2Cl)n1)CCO [Compound 11, 3-[N,N-Bis-(2-hydroxyethyl)-formamidino]-5-(2,6-dichlorobenzyl)-1,2,4-oxadiazole]	–	–	≥ 500 mg/kg	-32%	–
Nc1noc(Cc2c(F)cccc2F)n1 [Compound 16]	-18%	-1%	–	–	–
CN(C)C=Nc1noc(Cc2c(F)cccc2Cl)n1 [Compound 15]	-26%	-6%	≤ 500 mg/kg	–	–
CN(C)C=Nc1noc(Cc2c(Cl)cccc2Cl)n1 [Compound 9]	–	–	> 500 mg/kg	-29%	-15%
CN(C)c1noc(Cc2c(Cl)cccc2Cl)n1 [Compound 1]	–	–	–	-33%	-14%
CNc1noc(Cc2c(Cl)cccc2Cl)n1 [Compound 2, 3-Methylamino-5-(2,6-dichlorobenzyl)-1,2,4-oxadiazole]	–	–	–	-18%	-9%
Cc1cccc(C)c1Cc1nc(N=CN(C)C)no1 [Compound 14]	–	–	–	-22%	-13%
CN1CCN(C=Nc2noc(Cc3c(Cl)cccc3Cl)n2)CC1 [Compound 10]	–	–	< 500 mg/kg	-29%	–
CN(C)CCCNc1noc(Cc2c(Cl)cccc2Cl)n1 [Compound 6]	–	–	< 250 mg/kg	-5%	-7%
Nc1noc(Cc2c(Cl)cccc2Cl)n1 [Compound 18, 3-Amino-5-(2,6-dichlorobenzyl)-1,2,4-oxadiazole]	-18%	-3%	250 mg/kg	–	–
